Patent US11077088B2, “Composition and apparatus for treatment of chemotherapy induced alopecia” (Paxman Coolers Ltd, priority 2016, dated 2021)

Tested on: HaCaTa cells

Structure (SMILES)	protection from drug-induced toxicity (Absorbance units) (0.625 mM NAC plus cooling at 22° C., extremely high doses of 4-OH-CP (FIG. 5))	cytoprotection from combinatorial drug treatment (AC), versus cooling alone (0.625 mM NAC plus cooling at 26° C. or 22° C., sequential doxorubicin 3 μg/ml (1 h) and 4-OH-CP 5 μg/ml (1 h) (FIG. 7))	cytoprotection of cooling at 26° C. with inhibition of ROS, compared with 22° C. at same CP concentration (0.625 mM NAC plus cooling at 26° C., 4-OH-CP (FIG. 4 vs FIG. 3))	protection from drug-induced toxicity (% relative to control) (0.625 mM NAC plus cooling at 26° C., extremely high doses of doxorubicin (FIG. 6))	cytotoxicity of the drug in keratinocytes
CC(=O)N[C@@H](CS)C(=O)O [NAC, N-acetyl-cysteine]	strikingly high levels of protection	better cytoprotection	highly cytoprotective	strikingly high levels of protection	–
COc1cccc2c1C(=O)c1c(O)c3c(c(O)c1C2=O)C[C@@](O)(C(=O)CO)C[C@@H]3O[C@H]1C[C@H](N)[C@H](O)[C@H](C)O1 [doxorubicin]	–	–	–	–	nearly total cytotoxicity (death)
